In ChEMBL document CHEMBL1130942, “A combinatorial approach to chemical modification of subtilisin Bacillus lentus” (Bioorg Med Chem Lett, 1998):

Key:
Format in all cases: ADME
[1] = Compound was tested for esterase rate in the presence of N62C screen enzyme
[2] = Compound was tested for esterase rate in the presence of N62C fully characterised enzyme
[3] = Compound was tested for amidase rate in the presence of N62C fully characterised enzyme
[4] = Compound was tested for esterase rate in the presence of S166C screen enzyme
[5] = Compound was tested for amidase rate in the presence of N62C screen enzyme
[6] = Compound was tested for amidase rate in the presence of S166C fully characterised enzyme
[7] = Compound was tested for amidase rate in the presence of S166C screen enzyme
[8] = Compound was tested for esterase rate in the presence of S166C fully characterised enzyme

| SMILES | k cat/Km [1] [M⁻¹ s⁻¹] | k cat/Km [2] [M⁻¹ s⁻¹] | k cat/Km [3] [M⁻¹ s⁻¹] | k cat/Km [4] [M⁻¹ s⁻¹] | k cat/Km [5] [M⁻¹ s⁻¹] | k cat/Km [6] [M⁻¹ s⁻¹] | k cat/Km [7] [M⁻¹ s⁻¹] | k cat/Km [8] [M⁻¹ s⁻¹] |
| --- | --- | --- | --- | --- | --- | --- | --- | --- |
| COc1ccc(CSS(C)(=O)=O)cc1 | 5.68e+06 | 7.87e+06 | 93000 | 1.746e+06 | 86000 | 68000 | 17000 | 5.798e+06 |
| CS(=O)(=O)SCc1ccc(C(=O)O)cc1 | 7.68e+06 | 5.07e+07 | 442000 | 2.37e+06 | 74000 | 72000 | 16000 | 1.146e+07 |
| CS(=O)(=O)SCc1ccccc1 | 6.51e+06 | 6.33e+06 | 379000 | 1.16e+06 | 207000 | 20000 | 10000 | 4.92e+06 |
| CS(=O)(=O)SCc1c(F)c(F)c(F)c(F)c1F [METHANETHIOSULFONIC ACID PENTAFLUOROPHENYLMETHYL ESTER] | 7.52e+06 | 1.426e+07 | 198000 | 784000 | 111000 | 67000 | 14000 | 5.198e+06 |
